Assay results taken from patent US20080090835A1, “Polymorphic forms of ziprasidone HCl and processes for their preparation” (Teva Pharmaceuticals USA, Inc. for Barbados, priority 2003, published 2008).
Where a name gives a salt, the structure may show the parent alone.

Experiments:
Assay type in all cases: physicochemical
Solubility in water = test: Solubility in water
[1] = Solubility in methanol (noted for Karl Fisher water determination)
Text: Ziprasidone HCl Form G may have a water content of about 5% to about 12%. Ziprasidone HCl Form G may be a dihydrate (about 7.4% stoichiometric value for the dihydrate) or a trihydrate (about 10.7% stoichiometric value for the trihydrate).

[2] = Equilibration at different relative humidities for 22 days: water uptake (TGA weight loss) and crystal form; conditions: for TGA weight loss (%) (water uptake): HCl
Text: (§1) Form A is characterized by an X-Ray diffraction pattern having peaks at about 10.9, 17.4 19.1, 25.0 and 26.0±0.2 degrees 2 theta.
(§2) In another aspect, the present invention provides for ziprasidone HCl Form F. Ziprasidone HCl Form F is characterized by an XRD pattern (FIG. 7) with peaks at 11.0, 18.1, 19.5, 21.9±0.2 degrees 2 theta. Ziprasidone HCl Form F is further characterized by XRD peaks at 14.9, 24.9, 26.1±0.2 degrees 2 theta. […] The water content and the weight loss by TGA of the sample may range of about 2.6% to about 16% by weight.
(§3) X-Ray powder diffraction data were obtained using by method known in the art using a SCINTAG powder X-Ray diffractometer model X'TRA equipped with a solid state detector. Copper radiation of 1.5418 Å was used. A round aluminum sample holder with round zero background quartz plate, with cavity of 25(diameter)*0.5(dept) mm.
TGA analysis was done using a Mettler M3 meter. The weight of the samples was about 10 mg; the samples were scanned at a rate of 10° C./min from 25° C. to 200° C. The oven was constantly purged with nitrogen gas at a flow rate of 40 ml/min. Standard 70 μl alumina crucibles covered by lids with 1 hole were used.
(§4) The water content of ziprasidone HCl was measured by the methods known in the art like Karl Fisher or thermogravimetric analysis (TGA). In the case of ziprasidone HCl F, the TGA and Karl Fisher analysis matched, while for ziprasidone HCl form E the TGA analysis exceeded by far that of Karl Fisher, as an indication that a significant quantity of solvent is present.

[3] = Heating at 80-105° C. overnight: crystal form and water content; conditions: for Crystal form after heating at 80-105° C. overnight / Crystal form after heating at elevated temperature: HCl; for Crystal form after heating at elevated temperature: about 80° C. overnight
Text: as §1, §2, §3, §4

Row | Compound | Solubility in water (Solubility in water) | Solubility in methanol [1] | Crystal form ([2]; RH 0%, 22 days) | TGA weight loss (%) (water uptake) ([2]; RH 0%, 22 days) | TGA weight loss (%) (water uptake) ([2]; RH 20%, 22 days) | TGA weight loss (%) (water uptake) ([2]; RH 40%, 22 days) | TGA weight loss (%) (water uptake) ([2]; RH 60%, 22 days) | Crystal form ([2]; RH 80%, 22 days) | TGA weight loss (%) (water uptake) ([2]; RH 80%, 22 days) | Crystal form ([2]; RH 100%, 22 days) | TGA weight loss (%) (water uptake) ([2]; RH 100%, 22 days) | Crystal form after exposure to relative humidity of about 20% to about 60% ([2]; RH about 20% to about 60%, about 22 days) | Crystal form after exposure to low relative humidity ([2]; about 10% to about 0% relative humidity, 22 days) | Crystal form after exposure to high relative humidity ([2]; high relative humidity, about 22 days) | Crystal form after heating at 80-105° C. overnight [3] | Crystal form after heating at elevated temperature [3] | Crystal form after equilibration at relative humidity of about 0% to about 100% ([2]; RH about 0% to about 100%) | % water content ([3]; after heating at 80-105° C. overnight) | Water content after heating ([3]; heated overnight at about 80° C.)
1 | O=C1Cc2cc(CCN3CCN(c4nsc5ccccc45)CC3)c(Cl)cc2N1 [ziprasidone HCl] | low solubility |  |  |  |  |  |  |  |  |  |  |  |  |  |  |  |  |  | 
2 | O=C1Cc2cc(CCN3CCN(c4nsc5ccccc45)CC3)c(Cl)cc2N1 [Ziprasidone HCl Form G, ziprasidone HCl] |  | sparingly soluble |  |  |  |  |  |  |  |  |  |  |  |  |  |  |  |  | 
3 | O=C1Cc2cc(CCN3CCN(c4nsc5ccccc45)CC3)c(Cl)cc2N1 [ziprasidone HCl form E, ziprasidone HCl] |  |  | Amorphous | 5.3% | 7.2% | 4.8% | 5.0% | Monohydrate + | 9.2% | Monohydrate + | 51.3% | transforms to Form A | transforms to amorphous form | transforms to form M | Amorphous + form F | transforms to amorphous form |  |  | 
4 | O=C1Cc2cc(CCN3CCN(c4nsc5ccccc45)CC3)c(Cl)cc2N1 [ziprasidone HCl form F, ziprasidone HCl] |  |  |  | 2.6% | 4.2% | 4.0% | 4.5% |  | 7.7% |  | 15.8% |  |  |  | Form F | retains its original crystal form | retains its crystal form | 0.8% | 0.8%
